Laboratory results from patent US20250296959A1, “B7-H3 TARGETING PEPTIDES AND CONSTRUCTS THEREOF” (Mariana Oncology Inc., priority 2024, published 2025).
Starred links: 1 amine or outer side, 2 acyl side, 3 side chain; linkers in the order of their positions; H or OH if unused. Positions of bridges follow the written chain, without caps; N, C: chain ends. Non-standard residues stand in square brackets, D forms with d. Residues, ends and D or L forms follow the SMILES beside them. *: point of attachment. Ala(1-CH2CO2H-4-piperidyl) = N[C@@H](CC1CCN(CC(=O)O)CC1)C(=O)O; Ala(piperidin-4-yl) = O=C([C@H](CC1CCN([*:3])CC1)N[*:1])[*:2]; DOTA = O=C(O)CN1CCN(CC(=O)O)CCN(CC(=O)*)CCN(CC(=O)O)CC1; Phe(4-COOH) = N[C@@H](Cc1ccc(C(=O)O)cc1)C(=O)O; Trp(5-F) = N[C@@H](Cc1c[nH]c2ccc(F)cc12)C(=O)O; 1Nal = N[C@@H](Cc1cccc2ccccc12)C(=O)O; Ala(4-THP) = N[C@@H](CC1CCOCC1)C(=O)O; Val(3-OH) = CC(C)(O)[C@H](N)C(=O)O; Tle = CC(C)(C)[C@H](N)C(=O)O; hLeu = CC(C)CC[C@H](N)C(=O)O; Nle = CCCC[C@H](N)C(=O)O; Orn = NCCC[C@H](N)C(=O)O

biological target: T1, human 4lg B7-H3 (Homo sapiens, UniProt Q5ZPR3); assay: Affinity determination by surface plasmon resonance (SPR) to 4Ig B7-H3; details: SPR KD—25° C., 4Ig B7-H3; 25° C. flow cell temperature
T1 sequence (Q5ZPR3 29-534): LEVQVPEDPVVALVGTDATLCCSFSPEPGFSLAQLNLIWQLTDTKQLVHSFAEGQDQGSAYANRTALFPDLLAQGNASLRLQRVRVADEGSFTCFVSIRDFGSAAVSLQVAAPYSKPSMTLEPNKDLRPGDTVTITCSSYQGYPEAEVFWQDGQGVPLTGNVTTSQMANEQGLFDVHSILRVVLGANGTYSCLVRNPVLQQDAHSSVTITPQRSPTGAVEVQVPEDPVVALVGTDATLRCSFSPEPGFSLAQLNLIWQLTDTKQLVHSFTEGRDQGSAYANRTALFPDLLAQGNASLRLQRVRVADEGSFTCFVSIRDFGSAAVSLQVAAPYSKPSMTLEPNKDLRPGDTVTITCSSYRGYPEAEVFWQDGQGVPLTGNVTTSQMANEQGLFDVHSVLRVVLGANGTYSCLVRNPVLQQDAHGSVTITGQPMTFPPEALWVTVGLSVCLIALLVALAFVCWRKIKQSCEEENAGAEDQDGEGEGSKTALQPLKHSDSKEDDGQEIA

Kd [nM] | Compound
1 to 10 | CC(=O)N[C@@H](CCC(C)C)C(=O)N[C@@H](Cc1ccc(O)cc1)C(=O)N[C@H]1CSSC[C@@H](C(=O)N[C@@H](Cc2c[nH]c3ccc(F)cc23)C(=O)N[C@@H](Cc2ccccc2)C(=O)N2CCC[C@H]2C(=O)N[C@H](CCCCNC(=O)CN2CCN(CC(=O)O)CCN(CC(=O)O)CCN(CC(=O)O)CC2)C(=O)O)NC(=O)[C@H](Cc2ccc(O)cc2)NC(=O)[C@H](C(C)C)NC(=O)[C@H](CC(=O)O)NC(=O)[C@H](CC2CCOCC2)NC(=O)[C@H](CCCN)NC(=O)CNC(=O)[C@H](C(C)(C)C)NC1=O [compound 312, Ac-hLeu-Y-C-Tbg-G-Orn-ThpA-D-V-Y-C-5FW-F-Pro-dLys(DOTA)-COOH] (Ac-[hLeu]YC[Tle]G[Orn][Ala(4-THP)]DVYC[Trp(5-F)]FP[dK](DOTA)-OH; disulfide 3-11)

same assay, conditions: SPR KD—37° C., 4Ig B7-H3; 37° C. flow cell temperature

Compound | Kd [nM]
CC(=O)N[C@@H](CCC(C)C)C(=O)N[C@@H](Cc1ccc(O)cc1)C(=O)N[C@H]1CSSC[C@@H](C(=O)N[C@@H](Cc2cccc3ccccc23)C(=O)N[C@@H](Cc2ccccc2)C(=O)N2CCC[C@H]2C(=O)N[C@H](CCCCNC(=O)CN2CCN(CC(=O)O)CCN(CC(=O)O)CCN(CC(=O)O)CC2)C(N)=O)NC(=O)[C@H](Cc2ccc(O)cc2)NC(=O)[C@H](C(C)C)NC(=O)[C@H](CC(=O)O)NC(=O)[C@H](Cc2ccc(C(=O)O)cc2)NC(=O)[C@H](CC2CCNCC2)NC(=O)CNC(=O)[C@H](C(C)(C)C)NC1=O [compound 315, Ac-hLeu-Y-C-Tbg-G-PipAla-4COOHPhe-D-V-Y-C-5FW-F-Pro-dLys(DOTA)-CONH2] (Ac-[hLeu]YC[Tle]G[Ala(piperidin-4-yl)][Phe(4-COOH)]DVYC[1Nal]FP[dK](DOTA)-NH2; disulfide 3-11) | 1 to 10
CC(=O)N[C@@H](CCC(C)C)C(=O)N[C@@H](Cc1ccc(O)cc1)C(=O)N[C@H]1CSSC[C@@H](C(=O)N[C@@H](Cc2c[nH]c3ccc(F)cc23)C(=O)N[C@@H](Cc2ccccc2)C(=O)N2CCC[C@H]2C(=O)N[C@H](CCCCNC(=O)CN2CCN(CC(=O)O)CCN(CC(=O)O)CCN(CC(=O)O)CC2)C(=O)O)NC(=O)[C@H](Cc2ccc(O)cc2)NC(=O)[C@H](C(C)C)NC(=O)[C@H](CC(=O)O)NC(=O)[C@H](CC2CCOCC2)NC(=O)[C@H](CC2CCN(CC(=O)O)CC2)NC(=O)CNC(=O)[C@H](C(C)(C)C)NC1=O [compound 319, Ac-hLeu-Y-C-Tbg-G-[Pip(CH2CO2H)Ala]-ThpA-D-V-Y-C-5FW-F-Pro-dLys(DOTA)-COOH] (Ac-[hLeu]YC[Tle]G[Ala(1-CH2CO2H-4-piperidyl)][Ala(4-THP)]DVYC[Trp(5-F)]FP[dK](DOTA)-OH; disulfide 3-11) | 1 to 10
CC(=O)N[C@@H](CCC(C)C)C(=O)N[C@@H](Cc1ccc(O)cc1)C(=O)N[C@H]1CSSC[C@@H](C(=O)N[C@@H](Cc2c[nH]c3ccc(F)cc23)C(=O)N[C@@H](Cc2ccccc2)C(=O)N2CCC[C@H]2C(=O)N[C@H](CCCCNC(=O)CN2CCN(CC(=O)O)CCN(CC(=O)O)CCN(CC(=O)O)CC2)C(N)=O)NC(=O)[C@H](Cc2ccc(O)cc2)NC(=O)[C@H](C(C)C)NC(=O)[C@H](CC(=O)O)NC(=O)[C@H](Cc2ccc(C(=O)O)cc2)NC(=O)[C@H](CC2CCN(CC(=O)O)CC2)NC(=O)CNC(=O)[C@H](C(C)C)NC1=O [compound 320, Ac-hLeu-Y-C-V-G-[Pip(CH2CO2H)Ala]-4COOHPhe-D-V-Y-C-5FW-F-Pro-dLys(DOTA)-CONH2] (Ac-[hLeu]YCVG[Ala(1-CH2CO2H-4-piperidyl)][Phe(4-COOH)]DVYC[Trp(5-F)]FP[dK](DOTA)-NH2; disulfide 3-11) | 1 to 10
CCCC[C@H](NC(=O)[C@H](Cc1c[nH]c2ccc(F)cc12)NC(=O)[C@@H]1CSSC[C@H](NC(=O)[C@H](Cc2ccc(O)cc2)NC(=O)[C@H](CCC(C)C)NC(C)=O)C(=O)N[C@@H](C(C)(C)C)C(=O)NCC(=O)N[C@@H](CC2CCN(CC(=O)O)CC2)C(=O)N[C@@H](CC2CCOCC2)C(=O)N[C@@H](CC(=O)O)C(=O)N[C@@H](C(C)C)C(=O)N[C@@H](Cc2ccc(O)cc2)C(=O)N1)C(=O)N1CCC[C@H]1C(=O)N[C@H](CCCCNC(=O)CN1CCN(CC(=O)O)CCN(CC(=O)O)CCN(CC(=O)O)CC1)C(=O)O [compound 321, Ac-hLeu-Y-C-Tbg-G-[Pip(CH2CO2H)Ala]-ThpA-D-V-Y-C-5FW-Nle-Pro-dLys(DOTA)-COOH] (Ac-[hLeu]YC[Tle]G[Ala(1-CH2CO2H-4-piperidyl)][Ala(4-THP)]DVYC[Trp(5-F)][Nle]P[dK](DOTA)-OH; disulfide 3-11) | 10 to 100
CC(=O)N[C@@H](CCC(C)C)C(=O)N[C@@H](Cc1ccc(O)cc1)C(=O)N[C@H]1CSSC[C@@H](C(=O)N[C@@H](Cc2c[nH]c3ccc(F)cc23)C(=O)N[C@@H](Cc2ccccc2)C(=O)N[C@H](C(=O)O)[C@@H](C)O)NC(=O)[C@H](Cc2ccc(O)cc2)NC(=O)[C@H](C(C)C)NC(=O)[C@H](CC(=O)O)NC(=O)[C@H](CC2CCN(CC(=O)O)CC2)NC(=O)[C@H](CCCCNC(=O)CN2CCN(CC(=O)O)CCN(CC(=O)O)CCN(CC(=O)O)CC2)NC(=O)CNC(=O)[C@H](C(C)(C)C)NC1=O [compound 326, Ac-hLeu-Y-C-Tbg-G-Lys(DOTA)-Pip(CH2COOH)Ala-D-V-Y-C-5FW-F-Thr-COOH] (Ac-[hLeu]YC[Tle]GK(DOTA)[Ala(1-CH2CO2H-4-piperidyl)]DVYC[Trp(5-F)]FT-OH; disulfide 3-11) | 10 to 100
CCCC[C@H](NC(=O)[C@H](Cc1c[nH]c2ccc(F)cc12)NC(=O)[C@@H]1CSSC[C@H](NC(=O)[C@H](Cc2ccc(O)cc2)NC(=O)[C@H](CCC(C)C)NC(C)=O)C(=O)N[C@@H](C(C)(C)C)C(=O)NCC(=O)N[C@@H](CCCCN)C(=O)N[C@@H](CC2CCOCC2)C(=O)N[C@@H](CC(=O)O)C(=O)N[C@@H](C(C)C)C(=O)N[C@@H](Cc2ccc(O)cc2)C(=O)N1)C(=O)N[C@H](C(=O)N[C@H](CCCCNC(=O)CN1CCN(CC(=O)O)CCN(CC(=O)O)CCN(CC(=O)O)CC1)C(=O)O)C(C)(C)O [compound 327, Ac-hLeu-Y-C-Tbg-G-K-ThpA-D-V-Y-C-5FW-Nle-hydroxyVal-dLys(DOTA)-COOH] (Ac-[hLeu]YC[Tle]GK[Ala(4-THP)]DVYC[Trp(5-F)][Nle][Val(3-OH)][dK](DOTA)-OH; disulfide 3-11) | 10 to 100

The next lines start with the values.

Kd [nM] | Compound
< 1 | CC(=O)N[C@@H](CCC(C)C)C(=O)N[C@@H](Cc1ccc(O)cc1)C(=O)N[C@H]1CSSC[C@@H](C(=O)N[C@@H](Cc2c[nH]c3ccc(F)cc23)C(=O)N[C@@H](Cc2ccccc2)C(=O)N2CCC[C@H]2C(=O)N[C@H](CCCCNC(=O)CN2CCN(CC(=O)O)CCN(CC(=O)O)CCN(CC(=O)O)CC2)C(=O)O)NC(=O)[C@H](Cc2ccc(O)cc2)NC(=O)[C@H](C(C)C)NC(=O)[C@H](CC(=O)O)NC(=O)[C@H](Cc2ccc(C(=O)O)cc2)NC(=O)[C@H](CC2CCNCC2)NC(=O)CNC(=O)[C@H](C(C)C)NC1=O [compound 313, Ac-hLeu-Y-C-V-G-PipAla-4COOHPhe-D-V-Y-C-5FW-F-Pro-dLys(DOTA)-COOH] (Ac-[hLeu]YCVG[Ala(piperidin-4-yl)][Phe(4-COOH)]DVYC[Trp(5-F)]FP[dK](DOTA)-OH; disulfide 3-11)
1 to 10 | CC[C@H](C)[C@@H]1NC(=O)[C@@H](NC(=O)[C@H](Cc2ccc(O)cc2)NC(=O)[C@H](CCC(C)C)NC(C)=O)CSSC[C@@H](C(=O)N[C@@H](Cc2c[nH]c3ccc(F)cc23)C(=O)N[C@@H](Cc2ccccc2)C(=O)N[C@H](C(=O)O)C(C)(C)O)NC(=O)[C@H](Cc2ccc(O)cc2)NC(=O)[C@H](C(C)C)NC(=O)[C@H](CC(=O)O)NC(=O)[C@H](CC2CCNCC2)NC(=O)[C@H](CCCCNC(=O)CN2CCN(CC(=O)O)CCN(CC(=O)O)CCN(CC(=O)O)CC2)NC(=O)CNC1=O [compound 323, Ac-hLeu-Y-C-Ile-G-Lys(DOTA)-PipAla-D-V-Y-C-5FW-F-hydroxyVal-COOH] (Ac-[hLeu]YCIGK(DOTA)[Ala(piperidin-4-yl)]DVYC[Trp(5-F)]F[Val(3-OH)]-OH; disulfide 3-11)
10 to 100 | CC[C@H](C)[C@@H]1NC(=O)[C@@H](NC(=O)[C@H](Cc2ccc(O)cc2)NC(=O)[C@H](CCC(C)C)NC(C)=O)CSSC[C@@H](C(=O)N[C@@H](Cc2c[nH]c3ccc(F)cc23)C(=O)N[C@@H](Cc2ccccc2)C(=O)N[C@H](C(=O)O)C(C)(C)O)NC(=O)[C@H](Cc2ccc(O)cc2)NC(=O)[C@H](C(C)C)NC(=O)[C@H](CC(=O)O)NC(=O)[C@H](CC2CCN(CC(=O)O)CC2)NC(=O)[C@H](CCCCNC(=O)CN2CCN(CC(=O)O)CCN(CC(=O)O)CCN(CC(=O)O)CC2)NC(=O)CNC1=O [compound 324, Ac-hLeu-Y-C-Ile-G-Lys(DOTA)-Pip(CH2COOH)Ala-D-V-Y-C-5FW-F-hydroxyVal-COOH] (Ac-[hLeu]YCIGK(DOTA)[Ala(1-CH2CO2H-4-piperidyl)]DVYC[Trp(5-F)]F[Val(3-OH)]-OH; disulfide 3-11)
10 to 100 | CC(=O)N[C@@H](CCC(C)C)C(=O)N[C@@H](Cc1ccc(O)cc1)C(=O)N[C@H]1CSSC[C@@H](C(=O)N[C@@H](Cc2c[nH]c3ccc(F)cc23)C(=O)N[C@@H](Cc2ccccc2)C(=O)N[C@H](C(=O)O)C(C)(C)O)NC(=O)[C@H](Cc2ccc(O)cc2)NC(=O)[C@H](C(C)C)NC(=O)[C@H](CC(=O)O)NC(=O)[C@H](Cc2ccc(C(=O)O)cc2)NC(=O)[C@H](CCCCNC(=O)CN2CCN(CC(=O)O)CCN(CC(=O)O)CCN(CC(=O)O)CC2)NC(=O)CNC(=O)[C@H](C(C)C)NC1=O [compound 325, Ac-hLeu-Y-C-V-G-Lys(DOTA)-4COOHPhe-D-V-Y-C-5FW-F-hydroxyVal-COOH] (Ac-[hLeu]YCVGK(DOTA)[Phe(4-COOH)]DVYC[Trp(5-F)]F[Val(3-OH)]-OH; disulfide 3-11)
